Where no end group is shown, it is not given here.
What was measured:
SCC cancer cells = assay: Ex vivo flow cytometry of wild-type SCC and SCC FAK (−/−) tumors; assay type: cell-based, mouse; conditions: for Fluorescence intensity of H5 inside SCC cancer cells (525 nm) / Freq cancer cells (GzmB-positive SCC cancer cells by H5 staining): H5 5 μM, 30 min; for Mean fluorescence intensity after incubation with probe H5: SCC (-/-) tumor digests
Procedure: P-values from two-tailed t-tests using Welch correction. Source data (c–f) provided as a Source Data file.
All animal work was carried out in compliance with UK Home Office guidelines. SCC tumors were established and labeled for flow cytometry as previously described. Briefly, 1 × 10^6 SCC cancer cells (obtained from Dr Alan Serrels at The University of Edinburgh) were injected subcutaneously into FVB/N mice (n = 4 for both WT and FAK (−/−) groups, Sex: female, Age: 10–14 weeks, obtained from Harlan UK), which were sacrificed 14 days post-implantation and tumors disaggregated to generate a single-cell suspension. […] Data analysis was performed using FlowJo V10 software. […]
and SCC7.1 FAK-/- tumors. All cells were gated on singlets and live cells (Zombie NIR viability dye, 1:1000 dilution). Wild-type SCC and SCC FAK-/- were gated as CD45− CD140a− (AF700 & BV650, respectively). All non-cancerous and non-fibrotic cells were gated on CD45+ (AF700). Monocytes were gated on CD11b+ (PerCP-Cy5.5) whilst the remaining cells were classified as CD8+ T cells (PE), CD4+ T cells (eFluor450) or immune cells (CD4−CD8− or CD4+CD8+).
(§1) (1 picture or pasted object on this page, not shown here)

[1] = tested on: EpCAM+ epithelial cells from lung cancer patients; assay: Flow cytometry of paired tumor and non-tumor lung tissue; assay type: cell-based, human; conditions: H5 5 μM, 30 min r.t.
Procedure: Tissue samples of tumor and paired non-tumor (n = 5 for both conditions) lungs were taken from treatment-naïve patients undergoing surgical resection. Participants provided written informed consent and the study was approved by NHS Lothian REC and facilitated by NHS Lothian SAHSC Bioresource (REC No: 15/ES/0094). Fresh samples were minced, incubated with 1 mg mL^−1 collagenase IV, 1 mg mL^−1 DNase 1, 50 U mL^−1 hyaluronidase in DMEM for 1 h at 37 °C with agitation, and passed through 100 and 70 µm filters followed by red cell lysis. […] Cells were washed twice in PBS 2% fetal calf serum (FCS) prior to collection. For microscopy, formalin-fixed paraffin-embedded slides of non-small cell lung cancer and paired non-cancerous lung were deparaffinized, rehydrated, stained with hematoxylin and eosin, followed by dehydration and imaging on a Zeiss AxioScan microscope.
Supplementary Figure 17. Gating strategy for assessing the probe H5 in human lung tissue. All cells were gated to exclude debris and gated on singlets. Leukocytes were excluded on the basis of CD45 positivity, and live EpCAM positive cells were selected by excluding cells stained positive with the Zombie UV viability dye (1:1000 dilution). Probe H5 positivity in the live EpCAM+ population in non-tumor and tumor tissues was assessed against cells stained in the absence of prob e H5 giving a background of <1% positivity.
as §1

hGzmB = assay: Limit of detection of hGzmB by probe fluorescence; assay type: biochemical, human; conditions: H5 25 μM, 37 °C, emission 530 nm, no washing steps (Fig. S4)
Procedure: Supplementary Figure 1. Reactivity of fluorogenic substrates against human GzmB and limits of detection. a) Reaction conversion rates (by HPLC-UV detection at 350 nm) for Ac-IEPD-AMC (50 μM) in TRIS buffer (see Methods) at 37 °C containing different concentrations of hGzmB. Data presented as mean values±SEM (n=3 independent biological experiments). b) Reaction conversion rates (by HPLC-UV detection at 500 nm) for the tetrapeptide T1 (25 μM) in TRIS buffer at 37 °C containing different concentrations of hGzmB. Data presented as mean values±SEM (3 independent biological experiments).
(§2) Source data provided as a Source Data file.
as §1
Supplementary Figure 4. Comparative enzyme selectivity and limit of detection for […]
Ac-IEPD-AMC (all at 25 μM) after incubation for 90 min at 37 °C with hGzmB (light gray bars), human caspase-3 (dark gray bars) and hGzmA (white bars) (all enzymes used at 20 nM). Data presented as mean values±SEM (n=3). Excitation wavelengths: 450 nm (for […]
450 nm (for Ac-IEPD-AMC). b) Limit of detection of hGzmB by fluorescence emission […]
presented as mean values±SD (2 independent experiments with 3 technical replicates).

mKate-E0771 cells = assay: MTT cell viability assay; assay type: cell-based, mouse; conditions: 1 h; for Cell viability (MTT), normalized to untreated cells: 37 °C
Procedure: Supplementary Figure 9. Cell viability assays in mKate-E0771 cancer cells. mKate-E0771 cells were plated in 96-well plates (50,000 cells well-1) and incubated at the […]
Cell viability was determined using a commercially available MTT kit (Invitrogen) with values normalized to untreated cells.
Data presented as mean values±SEM (2 independent experiments with 3 replicates for each). P values were obtained from ONE-ANOVA tests with multiple comparisons.
as §2, §1

Q: What does the source list for “IEPDAL [H5, FRET hexapeptide IEPDAL with BODIPY-FL fluorophore at the N-terminal end and Dabcyl quencher]”?
A: Fluorescence intensity of H5 inside SCC cancer cells (525 nm) (SCC cancer cells; SCC FAK tumor, Data 1): 17211; Freq cancer cells (GzmB-positive SCC cancer cells by H5 staining) (SCC cancer cells; SCC FAK tumor, Data 1): 19%; Fluorescence intensity of H5 inside SCC cancer cells (525 nm) (SCC cancer cells; SCC FAK tumor, Data 2): 15125; Freq cancer cells (GzmB-positive SCC cancer cells by H5 staining) (SCC cancer cells; SCC FAK tumor, Data 2): 45%; Fluorescence intensity of H5 inside SCC cancer cells (525 nm) (SCC cancer cells; SCC FAK tumor, Data 3): 14692; Freq cancer cells (GzmB-positive SCC cancer cells by H5 staining) (SCC cancer cells; SCC FAK tumor, Data 3): 38%; Fluorescence intensity of H5 inside SCC cancer cells (525 nm) (SCC cancer cells; SCC FAK tumor, Data 4): 14334; Freq cancer cells (GzmB-positive SCC cancer cells by H5 staining) (SCC cancer cells; SCC FAK tumor, Data 4): 41%; Fluorescence intensity of H5 inside SCC cancer cells (525 nm) (SCC cancer cells; SCC tumor, Data 1): 5564; Freq cancer cells (GzmB-positive SCC cancer cells by H5 staining) (SCC cancer cells; SCC tumor, Data 1): 6%; Fluorescence intensity of H5 inside SCC cancer cells (525 nm) (SCC cancer cells; SCC tumor, Data 2): 6027; Freq cancer cells (GzmB-positive SCC cancer cells by H5 staining) (SCC cancer cells; SCC tumor, Data 2): 4.5%; Fluorescence intensity of H5 inside SCC cancer cells (525 nm) (SCC cancer cells; SCC tumor, Data 3): 5635; Freq cancer cells (GzmB-positive SCC cancer cells by H5 staining) (SCC cancer cells; SCC tumor, Data 3): 2.78%; Fluorescence intensity of H5 inside SCC cancer cells (525 nm) (SCC cancer cells; SCC tumor, Data 4): 5745; Freq cancer cells (GzmB-positive SCC cancer cells by H5 staining) (SCC cancer cells; SCC tumor, Data 4): 3.77%; Mean fluorescence intensity after incubation with probe H5 (SCC cancer cells; CD4 T cells, Data 1): 3345; Mean fluorescence intensity after incubation with probe H5 (SCC cancer cells; CD4 T cells, Data 2): 2508; Mean fluorescence intensity after incubation with probe H5 (SCC cancer cells; CD8 T cells, Data 1): 3289; Mean fluorescence intensity after incubation with probe H5 (SCC cancer cells; CD8 T cells, Data 2): 2980; Mean fluorescence intensity after incubation with probe H5 (SCC cancer cells; cancer cells, Data 1): 11273; Mean fluorescence intensity after incubation with probe H5 (SCC cancer cells; cancer cells, Data 2): 13796; Mean fluorescence intensity after incubation with probe H5 (SCC cancer cells; immune cells (CD8-CD4-CD11b-), Data 1): 3435; Mean fluorescence intensity after incubation with probe H5 (SCC cancer cells; immune cells (CD8-CD4-CD11b-), Data 2): 2496; Mean fluorescence intensity after incubation with probe H5 (SCC cancer cells; monocytes / macrophages, Data 1): 2362; Mean fluorescence intensity after incubation with probe H5 (SCC cancer cells; monocytes / macrophages, Data 2): 2247; cancer cells labeled with probe H5 (SCC cancer cells; SCC FAK (−/−) tumors, H5 30 min): over 40%; percentage of EpCAM+ H5+ epithelial cells ([1]; Healthy (non-tumor) tissue, Data 1): 10.4%; percentage of EpCAM+ H5+ epithelial cells ([1]; Healthy (non-tumor) tissue, Data 2): 9.7%; percentage of EpCAM+ H5+ epithelial cells ([1]; Healthy (non-tumor) tissue, Data 3): 11.0%; percentage of EpCAM+ H5+ epithelial cells ([1]; Healthy (non-tumor) tissue, Data 4): 6.6%; percentage of EpCAM+ H5+ epithelial cells ([1]; Healthy (non-tumor) tissue, Data 5): 10.4%; percentage of EpCAM+ H5+ epithelial cells ([1]; Tumor tissue, Data 1): 19.4%; percentage of EpCAM+ H5+ epithelial cells ([1]; Tumor tissue, Data 2): 19.1%; percentage of EpCAM+ H5+ epithelial cells ([1]; Tumor tissue, Data 3): 21.3%; percentage of EpCAM+ H5+ epithelial cells ([1]; Tumor tissue, Data 4): 18.6%; percentage of EpCAM+ H5+ epithelial cells ([1]; Tumor tissue, Data 5): 36.0%; LoD (hGzmB): 6 pM; Cell viability (MTT), normalized to untreated cells (mKate-E0771 cells; H5 3.1 (head prints mM), Data 1): 107%; Cell viability (MTT), normalized to untreated cells (mKate-E0771 cells; H5 3.1 (head prints mM), Data 2): 102%; Cell viability (MTT), normalized to untreated cells (mKate-E0771 cells; H5 3.1 (head prints mM), Data 3): 89%; Cell viability (MTT), normalized to untreated cells (mKate-E0771 cells; H5 3.1 (head prints mM), Data 4): 85%; Cell viability (MTT), normalized to untreated cells (mKate-E0771 cells; H5 3.1 (head prints mM), Data 5): 94%; Cell viability (MTT), normalized to untreated cells (mKate-E0771 cells; H5 3.1 (head prints mM), Data 6): 89%; Cell viability (MTT), normalized to untreated cells (mKate-E0771 cells; H5 6.3 (head prints mM), Data 1): 99%; Cell viability (MTT), normalized to untreated cells (mKate-E0771 cells; H5 6.3 (head prints mM), Data 2): 93%; Cell viability (MTT), normalized to untreated cells (mKate-E0771 cells; H5 6.3 (head prints mM), Data 3): 97%; Cell viability (MTT), normalized to untreated cells (mKate-E0771 cells; H5 6.3 (head prints mM), Data 4): 95%; Cell viability (MTT), normalized to untreated cells (mKate-E0771 cells; H5 6.3 (head prints mM), Data 5): 89%; Cell viability (MTT), normalized to untreated cells (mKate-E0771 cells; H5 6.3 (head prints mM), Data 6): 90%; Cell viability (MTT), normalized to untreated cells (mKate-E0771 cells; H5 12.5 (head prints mM), Data 1): 107%; Cell viability (MTT), normalized to untreated cells (mKate-E0771 cells; H5 12.5 (head prints mM), Data 2): 106%; Cell viability (MTT), normalized to untreated cells (mKate-E0771 cells; H5 12.5 (head prints mM), Data 3): 99%; Cell viability (MTT), normalized to untreated cells (mKate-E0771 cells; H5 12.5 (head prints mM), Data 4): 96%; Cell viability (MTT), normalized to untreated cells (mKate-E0771 cells; H5 12.5 (head prints mM), Data 5): 84%; Cell viability (MTT), normalized to untreated cells (mKate-E0771 cells; H5 12.5 (head prints mM), Data 6): 88%; Cell viability (MTT), normalized to untreated cells (mKate-E0771 cells; H5 25 (head prints mM), Data 1): 107%; Cell viability (MTT), normalized to untreated cells (mKate-E0771 cells; H5 25 (head prints mM), Data 2): 102%; Cell viability (MTT), normalized to untreated cells (mKate-E0771 cells; H5 25 (head prints mM), Data 3): 99%; Cell viability (MTT), normalized to untreated cells (mKate-E0771 cells; H5 25 (head prints mM), Data 4): 76%; Cell viability (MTT), normalized to untreated cells (mKate-E0771 cells; H5 25 (head prints mM), Data 5): 81%; Cell viability (MTT), normalized to untreated cells (mKate-E0771 cells; H5 25 (head prints mM), Data 6): 81%; cytotoxicity (mKate-E0771 cells; MTT, 37 °C (Fig. S9)): not cytotoxic

Source: publication PMC9061857, “A fluorogenic probe for granzyme B enables in-biopsy evaluation and screening of response to anticancer immunotherapies” (Nature Communications, 2022)
